Experimental data reported in article PMC6478823, “A suite of phenotypic assays to ensure pipeline diversity when prioritizing drug-like Cryptosporidium growth inhibitors” (Nature Communications, 2019).

The molecules below were run on C. parvum (assay: not given). Conditions: compound at EC90; average of replicates.
Assay type: cell-based, Cryptosporidium parvum
Protocol: The first step in infection is host cell invasion, which involves a complex process encompassing oocyst excystation, parasite motility, adhesion, and parasitophorous vacuole formation (Fig. 2a). Our strategy to assay for compounds affecting invasion was simply to expose C. parvum to compounds immediately after triggering excystation and throughout the invasion process, and then enumerate the parasite vacuoles after 3 h, prior to allowing the parasites to replicate (summarized in Fig. 2b).
Fig. 2 Invasion Assay. a Overview of life cycle stage investigated during the invasion assay. Representative TEM images of a C. parvum oocyst and HCT-8 cell shortly after infection (Scale bar = 500 nm). b Schematic of experimental design. […] Each point represents the mean and SD of at least two biological replicates with four technical replicates per experiment.
C. parvum invasion inhibition was measured by modifying the 48 h growth inhibition assay described above. […] In parallel, Iowa strain oocysts were excysted. […] Assay plates were incubated at 37 °C and 5% CO2 for 3 h.
For `Cc1cccc(-n2ncc3c(=O)[nH]c(-n4nc(C)cc4NC(=O)C4CC4)nc32)c1` [C-4], the “Invasion Assay: Mean % Inhibition (parasites), Average” value was 9.11%. With `Cc1cccc(-n2ncc3c(=O)[nH]c(-n4nc(C)cc4NC(=O)C4CCCC4)nc32)c1` [C-5] the “Invasion Assay: Mean % Inhibition (parasites), Average” value was 13.07%.

Same assay, conditions: compound at EC90; single biological replicate 1
With `Cc1cccc(-n2ncc3c(=O)[nH]c(-n4nc(C)cc4NC(=O)C4CC4)nc32)c1` [C-4] the “Invasion Assay: Mean % Inhibition (parasites), Replicate 1a” value was 19%. `Cc1cccc(-n2ncc3c(=O)[nH]c(-n4nc(C)cc4NC(=O)C4CCCC4)nc32)c1` [C-5] was tested, and the “Invasion Assay: Mean % Inhibition (parasites), Replicate 1a” value was 31%.

Same assay, conditions: compound at EC90; single biological replicate 2
In the case of `Cc1cccc(-n2ncc3c(=O)[nH]c(-n4nc(C)cc4NC(=O)C4CC4)nc32)c1` [C-4], the “Invasion Assay: Mean % Inhibition (parasites), Replicate 2a” value is reported as -1.12%. `Cc1cccc(-n2ncc3c(=O)[nH]c(-n4nc(C)cc4NC(=O)C4CCCC4)nc32)c1` [C-5] was tested, and the “Invasion Assay: Mean % Inhibition (parasites), Replicate 2a” value was -4.39%.

Each molecule was assayed on C. parvum (assay: DNA replication assay (EdU incorporation)). Conditions: compound at EC90; average of replicates.
Assay type: cell-based, Cryptosporidium parvum
`Cc1cccc(-n2ncc3c(=O)[nH]c(-n4nc(C)cc4NC(=O)C4CC4)nc32)c1` [C-4] was tested, and the “DNA Synthesis Assay: Mean % Inhibition of EdU-labeling (normalized to parasite numbers), Average” value was 99.18%. With `Cc1cccc(-n2ncc3c(=O)[nH]c(-n4nc(C)cc4NC(=O)C4CCCC4)nc32)c1` [C-5] the “DNA Synthesis Assay: Mean % Inhibition of EdU-labeling (normalized to parasite numbers), Average” value was 98.17%.

Same assay, conditions: compound at EC90; single replicate 1
`Cc1cccc(-n2ncc3c(=O)[nH]c(-n4nc(C)cc4NC(=O)C4CC4)nc32)c1` [C-4] was tested, and the “DNA Synthesis Assay: Mean % Inhibition of EdU-labeling (normalized to parasite numbers), Replicate 1” value was 98.37%. With `Cc1cccc(-n2ncc3c(=O)[nH]c(-n4nc(C)cc4NC(=O)C4CCCC4)nc32)c1` [C-5] the “DNA Synthesis Assay: Mean % Inhibition of EdU-labeling (normalized to parasite numbers), Replicate 1” value was 96.33%.

Same assay, conditions: compound at EC90; single replicate 2
`Cc1cccc(-n2ncc3c(=O)[nH]c(-n4nc(C)cc4NC(=O)C4CC4)nc32)c1` [C-4] was tested, and the “DNA Synthesis Assay: Mean % Inhibition of EdU-labeling (normalized to parasite numbers), Replicate 2” value was 100.00%. For `Cc1cccc(-n2ncc3c(=O)[nH]c(-n4nc(C)cc4NC(=O)C4CCCC4)nc32)c1` [C-5], the “DNA Synthesis Assay: Mean % Inhibition of EdU-labeling (normalized to parasite numbers), Replicate 2” value was 100.00%.

Each molecule was assayed on C. parvum DMC1 expression (assay: Sexual differentiation assay (DMC1 expression)). Conditions: compound at asexual EC90, 48-72 h; average of replicates.
Assay type: cell-based, Cryptosporidium parvum
From the text: We utilized DMC1 as a marker of C. parvum sexual development, and used the anti-DMC1 monoclonal antibody to develop a moderate-throughput high-content microscopy assay for characterizing anticryptosporidial compounds (Fig. 6a). […] Therefore, in order to enable numerical comparison of the ability of compounds to block sexual development with moderate throughput, we adopted a strategy of reporting the percent inhibition of DMC1 expression by the previously determined EC90 of each compound in the standard asexual development assay (Fig. 6c and Supplementary Table 2).
Fig. 6 Assay to measure asexual-to-sexual-stage conversion. a Schematic of the experimental approach. […] For b and c the mean and SD combined from at least two biological replicates with four technical replicates per experiment are shown. […] At given time points post-infection, infected cells were washed 3 times with PBS containing 111 mM of D-galactose, fixed for 15 min at room temperature with 4% paraformaldehyde in PBS, and permeabilized with 0.25% triton X-100 in PBS for 10 min at 37 °C. Cells were then washed 3 times with PBS and blocked at least overnight at 4 °C with 1% BSA in PBS (blocking buffer). Cells were stained with monoclonal antibody (1H10G7), either neat culture supernatant or 12.8 µg/mL of purified IgG in blocking buffer for 1 h at 37 °C, followed by 2 washes with PBS. Cells were then co-stained with a 1:500 dilution (4 µg/mL) of Alexa Fluor 568 goat anti-mouse IgG (Invitrogen, catalog# A-11004) and 1.33 µg/mL fluorescein-labeled Vicia villosa lectin (Vector Laboratories, catalog# FL-1231) diluted in blocking buffer for 1 h at 37 °C. Stains were then removed and 0.09 mM Hoechst 33258 (AnaSpec, catalog# AS-83219) also diluted in blocking buffer was added for another 15 min at 37 °C, followed by 2 PBS washes and imaging on a Nikon Eclipse Ti2000 epifluorescence microscope run with NIS-Elements Advanced Research software (Nikon, USA) and equipped with an EXi blue fluorescent microscopy camera (QImaging, Canada). For enumerating parasites, tiled 2 × 2 images with 15% overlapping edges were taken using a 40 × dry objective (0.7 NA), and for finer details, Z stack images were acquired using a 60 × oil objective (1.4 NA). Lectin positive cells in focus were first counted, followed by DMC1.
For compound dose-response studies, the same assay was performed in 384-well plates and imaged using a 20 × dry objective (NA = 0.45). Tiled 4 × 4 to 6 × 6 images were taken. Images were analyzed using ImageJ software and the custom macro provided in Supplementary Method 2.
In the case of `Cc1cccc(-n2ncc3c(=O)[nH]c(-n4nc(C)cc4NC(=O)C4CC4)nc32)c1` [C-4], the “Asexual to sexual differentiation: Mean % DMC1 inhibition (normalized to host nuclei), Average” value is reported as 64.12%. In the case of `Cc1cccc(-n2ncc3c(=O)[nH]c(-n4nc(C)cc4NC(=O)C4CCCC4)nc32)c1` [C-5], the “Asexual to sexual differentiation: Mean % DMC1 inhibition (normalized to host nuclei), Average” value is reported as 52.89%.

Same assay, conditions: compound at asexual EC90, 48-72 h; single replicate 1
With `Cc1cccc(-n2ncc3c(=O)[nH]c(-n4nc(C)cc4NC(=O)C4CC4)nc32)c1` [C-4] the “Asexual to sexual differentiation: Mean % DMC1 inhibition (normalized to host nuclei), Replicate 1a” value was 60.65%. In the case of `Cc1cccc(-n2ncc3c(=O)[nH]c(-n4nc(C)cc4NC(=O)C4CCCC4)nc32)c1` [C-5], the “Asexual to sexual differentiation: Mean % DMC1 inhibition (normalized to host nuclei), Replicate 1a” value is reported as 39.80%.

Same assay, conditions: compound at asexual EC90, 48-72 h; single replicate 2
With `Cc1cccc(-n2ncc3c(=O)[nH]c(-n4nc(C)cc4NC(=O)C4CC4)nc32)c1` [C-4] the “Asexual to sexual differentiation: Mean % DMC1 inhibition (normalized to host nuclei), Replicate 2a” value was 67.59%. For `Cc1cccc(-n2ncc3c(=O)[nH]c(-n4nc(C)cc4NC(=O)C4CCCC4)nc32)c1` [C-5], the “Asexual to sexual differentiation: Mean % DMC1 inhibition (normalized to host nuclei), Replicate 2a” value was 65.99%.

The molecules below were run on C. parvum (assay: Egress, motility, reinvasion assay (PV ratio)). Conditions: compound at EC90; average of replicates.
Protocol: For quantification of parasitophorous vacuoles over time, HCT-8 cells were grown to greater than 90% confluence in 384-well plates and infected with 11,000 oocysts after triggering excystation.
`Cc1cccc(-n2ncc3c(=O)[nH]c(-n4nc(C)cc4NC(=O)C4CC4)nc32)c1` [C-4] was tested, and the “Egress and Reinvasion Assay: Mean PV ratios (19.5h:6h), Average” value was 0.48. For `Cc1cccc(-n2ncc3c(=O)[nH]c(-n4nc(C)cc4NC(=O)C4CCCC4)nc32)c1` [C-5], the “Egress and Reinvasion Assay: Mean PV ratios (19.5h:6h), Average” value was 0.31.

Same assay, conditions: compound at EC90; single replicate 1
With `Cc1cccc(-n2ncc3c(=O)[nH]c(-n4nc(C)cc4NC(=O)C4CC4)nc32)c1` [C-4] the “Egress and Reinvasion Assay: Mean PV ratios (19.5h:6h), Replicate 1a” value was 0.49. With `Cc1cccc(-n2ncc3c(=O)[nH]c(-n4nc(C)cc4NC(=O)C4CCCC4)nc32)c1` [C-5] the “Egress and Reinvasion Assay: Mean PV ratios (19.5h:6h), Replicate 1a” value was 0.20.

Same assay, conditions: compound at EC90; single replicate 2
`Cc1cccc(-n2ncc3c(=O)[nH]c(-n4nc(C)cc4NC(=O)C4CC4)nc32)c1` [C-4] was tested, and the “Egress and Reinvasion Assay: Mean PV ratios (19.5h:6h), Replicate 2a” value was 0.48. With `Cc1cccc(-n2ncc3c(=O)[nH]c(-n4nc(C)cc4NC(=O)C4CCCC4)nc32)c1` [C-5] the “Egress and Reinvasion Assay: Mean PV ratios (19.5h:6h), Replicate 2a” value was 0.42.
